Results taken from the supplement of paper PMC11208160.

test: recombinant barcode read abundance after kanamycin selection (control-corrected) (log10(CPM+1)); higher = more efficient recombination; sequences stand for … in AGTGCAGAGAAAATCGGCCAGTTTTCTCTGCCTGCAGTCCGCATGCCGT…ATTTATGCAGCGGACTGCCTTTCTCCCAAAGTGATAAACCGGACAGTATCATGGACCGGTTTTCCCGGTAATCCGTATTTGCAAGGTTGGTTTCACT; site = the 11-nt target
Method: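 Same pooled E. coli target screen (IS621 bridge recombinase, kanamycin selection, control-corrected CPM, mean of 2 biological replicates). Here the two core-binding nucleotides of the LTG and RTG of the bridge RNA target-binding loop are mutated. Target and donor CT cores are held constant, and the other 9 guide positions match the target. The target is read from the library oligo sequence. Molecule = full bridge RNA written as DNA: nt 1-80 from the library oligo, rest WT scaffold.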

Sequence	recombinant barcode read abundance (log10)
AAACACAACTGGGTTCTAACCTGTTGCCTAG [AAACACACTAG_LTGcore_AC_RTGcore_CT] (site AAACACACTAG) (LTG core: AC, RTG core: CT)	0.0236
AAACACAAGTGGGTTCTAACCTGTTGCCTCT [AAACACACTAG_LTGcore_AG_RTGcore_AG] (site AAACACACTAG) (LTG core: AG, RTG core: AG)	0.196
AAACACACATGGGTTCTAACCTGTTGCCTTG [AAACACACTAG_LTGcore_CA_RTGcore_CA] (site AAACACACTAG) (LTG core: CA, RTG core: CA)	0.341
AAACACACTTGGGTTCTAACCTGTTGCCTAC [AAACACACTAG_LTGcore_CT_RTGcore_GT] (site AAACACACTAG) (LTG core: CT, RTG core: GT)	0.217
AAACACACTTGGGTTCTAACCTGTTGCCTAG [AAACACACTAG_LTGcore_CT_RTGcore_CT] (site AAACACACTAG) (LTG core: CT, RTG core: CT)	2
AAACACACTTGGGTTCTAACCTGTTGCCTCA [AAACACACTAG_LTGcore_CT_RTGcore_TG] (site AAACACACTAG) (LTG core: CT, RTG core: TG)	0.985
AAACACACTTGGGTTCTAACCTGTTGCCTTA [AAACACACTAG_LTGcore_CT_RTGcore_TA] (site AAACACACTAG) (LTG core: CT, RTG core: TA)	0.852
AAACACATCTGGGTTCTAACCTGTTGCCTGA [AAACACACTAG_LTGcore_TC_RTGcore_TC] (site AAACACACTAG) (LTG core: TC, RTG core: TC)	0.505
AAACAGTAATGGGTTCTAACCTGTTGCCTAG [AAACAGTCTAG_LTGcore_AA_RTGcore_CT] (site AAACAGTCTAG) (LTG core: AA, RTG core: CT)	0.01
AAACAGTACTGGGTTCTAACCTGTTGCCTAG [AAACAGTCTAG_LTGcore_AC_RTGcore_CT] (site AAACAGTCTAG) (LTG core: AC, RTG core: CT)	0.0247
AAACAGTCATGGGTTCTAACCTGTTGCCTAG [AAACAGTCTAG_LTGcore_CA_RTGcore_CT] (site AAACAGTCTAG) (LTG core: CA, RTG core: CT)	1.38
AAACAGTCATGGGTTCTAACCTGTTGCCTTG [AAACAGTCTAG_LTGcore_CA_RTGcore_CA] (site AAACAGTCTAG) (LTG core: CA, RTG core: CA)	0.25
AAACAGTCGTGGGTTCTAACCTGTTGCCTCG [AAACAGTCTAG_LTGcore_CG_RTGcore_CG] (site AAACAGTCTAG) (LTG core: CG, RTG core: CG)	0.227
AAACAGTCTTGGGTTCTAACCTGTTGCCTAT [AAACAGTCTAG_LTGcore_CT_RTGcore_AT] (site AAACAGTCTAG) (LTG core: CT, RTG core: AT)	1.32
AAACAGTCTTGGGTTCTAACCTGTTGCCTCC [AAACAGTCTAG_LTGcore_CT_RTGcore_GG] (site AAACAGTCTAG) (LTG core: CT, RTG core: GG)	1.4
AAACAGTGATGGGTTCTAACCTGTTGCCTAG [AAACAGTCTAG_LTGcore_GA_RTGcore_CT] (site AAACAGTCTAG) (LTG core: GA, RTG core: CT)	0.192
AAACAGTGATGGGTTCTAACCTGTTGCCTTC [AAACAGTCTAG_LTGcore_GA_RTGcore_GA] (site AAACAGTCTAG) (LTG core: GA, RTG core: GA)	0.0385
AAACAGTGGTGGGTTCTAACCTGTTGCCTAG [AAACAGTCTAG_LTGcore_GG_RTGcore_CT] (site AAACAGTCTAG) (LTG core: GG, RTG core: CT)	0.0371
AAACAGTTGTGGGTTCTAACCTGTTGCCTCA [AAACAGTCTAG_LTGcore_TG_RTGcore_TG] (site AAACAGTCTAG) (LTG core: TG, RTG core: TG)	0.0424
AAACAGTTTTGGGTTCTAACCTGTTGCCTAG [AAACAGTCTAG_LTGcore_TT_RTGcore_CT] (site AAACAGTCTAG) (LTG core: TT, RTG core: CT)	0.109
AAACATGAATGGGTTCTAACCTGTTGCCTAG [AAACATGCTAG_LTGcore_AA_RTGcore_CT] (site AAACATGCTAG) (LTG core: AA, RTG core: CT)	0
AAACATGACTGGGTTCTAACCTGTTGCCTGT [AAACATGCTAG_LTGcore_AC_RTGcore_AC] (site AAACATGCTAG) (LTG core: AC, RTG core: AC)	0.123

Sequence	recombinant barcode read abundance (log10)
AAACATGCTTGGGTTCTAACCTGTTGCCTAC [AAACATGCTAG_LTGcore_CT_RTGcore_GT] (site AAACATGCTAG) (LTG core: CT, RTG core: GT)	1.05
AAACATGCTTGGGTTCTAACCTGTTGCCTGC [AAACATGCTAG_LTGcore_CT_RTGcore_GC] (site AAACATGCTAG) (LTG core: CT, RTG core: GC)	0.756
AAACATGCTTGGGTTCTAACCTGTTGCCTTA [AAACATGCTAG_LTGcore_CT_RTGcore_TA] (site AAACATGCTAG) (LTG core: CT, RTG core: TA)	0.485
AAACATGCTTGGGTTCTAACCTGTTGCCTTT [AAACATGCTAG_LTGcore_CT_RTGcore_AA] (site AAACATGCTAG) (LTG core: CT, RTG core: AA)	0.865
AAACATGGGTGGGTTCTAACCTGTTGCCTCC [AAACATGCTAG_LTGcore_GG_RTGcore_GG] (site AAACATGCTAG) (LTG core: GG, RTG core: GG)	0.137
AAACATGTGTGGGTTCTAACCTGTTGCCTCA [AAACATGCTAG_LTGcore_TG_RTGcore_TG] (site AAACATGCTAG) (LTG core: TG, RTG core: TG)	0.015
ACGGGACATTGGGTTCTAACCTGTTGCAGAG [ACGGGACCTCT_LTGcore_AT_RTGcore_CT] (site ACGGGACCTCT) (LTG core: AT, RTG core: CT)	0.0817
ACGGGACCGTGGGTTCTAACCTGTTGCAGAG [ACGGGACCTCT_LTGcore_CG_RTGcore_CT] (site ACGGGACCTCT) (LTG core: CG, RTG core: CT)	1.86
ACGGGACCTTGGGTTCTAACCTGTTGCAGCA [ACGGGACCTCT_LTGcore_CT_RTGcore_TG] (site ACGGGACCTCT) (LTG core: CT, RTG core: TG)	0.0129
ACGGGACCTTGGGTTCTAACCTGTTGCAGGT [ACGGGACCTCT_LTGcore_CT_RTGcore_AC] (site ACGGGACCTCT) (LTG core: CT, RTG core: AC)	0.534
ACGGGACCTTGGGTTCTAACCTGTTGCAGTC [ACGGGACCTCT_LTGcore_CT_RTGcore_GA] (site ACGGGACCTCT) (LTG core: CT, RTG core: GA)	0.425
ACGGGACGTTGGGTTCTAACCTGTTGCAGAG [ACGGGACCTCT_LTGcore_GT_RTGcore_CT] (site ACGGGACCTCT) (LTG core: GT, RTG core: CT)	0.463
ACGGGACTATGGGTTCTAACCTGTTGCAGAG [ACGGGACCTCT_LTGcore_TA_RTGcore_CT] (site ACGGGACCTCT) (LTG core: TA, RTG core: CT)	0.0145
ACGGGACTCTGGGTTCTAACCTGTTGCAGGA [ACGGGACCTCT_LTGcore_TC_RTGcore_TC] (site ACGGGACCTCT) (LTG core: TC, RTG core: TC)	0
AGGAGGTACTGGGTTCTAACCTGTTGCCTGT [AGGAGGTCTAG_LTGcore_AC_RTGcore_AC] (site AGGAGGTCTAG) (LTG core: AC, RTG core: AC)	0.183
AGGAGGTATTGGGTTCTAACCTGTTGCCTAT [AGGAGGTCTAG_LTGcore_AT_RTGcore_AT] (site AGGAGGTCTAG) (LTG core: AT, RTG core: AT)	0.643
AGGAGGTCATGGGTTCTAACCTGTTGCCTAG [AGGAGGTCTAG_LTGcore_CA_RTGcore_CT] (site AGGAGGTCTAG) (LTG core: CA, RTG core: CT)	0.207
AGGAGGTCATGGGTTCTAACCTGTTGCCTTG [AGGAGGTCTAG_LTGcore_CA_RTGcore_CA] (site AGGAGGTCTAG) (LTG core: CA, RTG core: CA)	0
AGGAGGTCCTGGGTTCTAACCTGTTGCCTGG [AGGAGGTCTAG_LTGcore_CC_RTGcore_CC] (site AGGAGGTCTAG) (LTG core: CC, RTG core: CC)	0.227
AGGAGGTCGTGGGTTCTAACCTGTTGCCTCG [AGGAGGTCTAG_LTGcore_CG_RTGcore_CG] (site AGGAGGTCTAG) (LTG core: CG, RTG core: CG)	0.384
AGGAGGTCTTGGGTTCTAACCTGTTGCCTAC [AGGAGGTCTAG_LTGcore_CT_RTGcore_GT] (site AGGAGGTCTAG) (LTG core: CT, RTG core: GT)	0.332
AGGAGGTCTTGGGTTCTAACCTGTTGCCTTA [AGGAGGTCTAG_LTGcore_CT_RTGcore_TA] (site AGGAGGTCTAG) (LTG core: CT, RTG core: TA)	0.446
